The text below walks through data of ChEMBL document CHEMBL1133992, “Hydrolase and sialyltransferase activities of trypanosoma cruzi trans-sialidase towards NeuAc-alpha-2,3-gal-Gal-beta-O-PNP” (Bioorg Med Chem Lett, 2001).

One assay deals with Vibrio cholerae. Description: Inhibitory activity against Vibrio cholerae sialidase at mM concentration, Not significant.
Assay [1] has as its system Trypanosoma cruzi. Description: Km value for hydrolase activity of Trypanosoma cruzi trans-sialidase.
Assay [2] has as its system Trypanosoma cruzi. Description: Km value for transferase activity of Trypanosoma cruzi trans-sialidase.

Structures are written as SMILES. The source made the active and inactive calls. The rule behind the calls is not given here. Bounds are passed on as bounds.

As to `CCCCCCCCOC1OC(CO)C(O)C(SC2(C(=O)O)CC(O)C(NC(C)=O)C([C@H](O)[C@H](O)CO)O2)C1O` (stereo partly drawn), the inhibition entry with Vibrio cholerae is “inactive”. Besides, the Km in the assay on Trypanosoma cruzi [1] and with Trypanosoma cruzi [2] was more than 5 mM in each case.
